Usually ED50 stands for the midpoint of the dose-response relation. As usually defined, the logP is a log measure of how a compound divides between an organic and an aqueous phase. High values mean higher lipophilicity, low ones lower lipophilicity. As a reminder, the melting point is the temperature, or range, at which the solid turns liquid.

Entries after “also recorded” stand apart in the source; their conditions may differ. Where two headings read alike, the source gives them in different places.

Results on two compounds are retold here after patent publication US20070275977A1, “N-OXIDES OF PYRIDYLMETHYL -PIPERAZINE AND -PIPERIDINE DERIVATIVES” (priority 2006, published 2007).

The nature of series [1]: Pharmacological profile in vivo (overall statement). The method, then: (§1) Lower lip retraction, an in vivo animal model for serotonin 5-HT1A receptor agonistic activity, was measured according to the method described by Berendsen (1989); Apomorphine-induced climbing behaviour in mice, an in vivo animal model for dopamine-D2 receptor antagonistic activity, was determined according to the method described by Costall (1978).

In series [2] the target is Dopamine-D2 (Homo sapiens, UniProt P14416). The series is described as follows: In vitro receptor affinity, Dopamine-D2. It counts as binding. The settings on record: radioligand [3H]-spiperone, read-out: K1 (in vitro receptor affinity). Here is the method:
(§2) ln vitro affinity for neurotransmitter receptors: The binding data collected below were either obtained by CE REP (128, rue Danton, 92500 Rueil-Malmaison, France) or at Solvay Pharmaceuticals B.V. (C. J. van Houtenlaan 36, 1381 CP Weesp, The Netherlands), using well documented standard procedures. The affinities for dopamine-D2 and 5-HT1A receptors for instance, were measured as described by Creese (1997) and Gozlan (1983) respectively.

For series [3], the target named is T1, Serotonin-5-HT1A (Homo sapiens, UniProt P08908).
T1 sequence (P08908 1-422): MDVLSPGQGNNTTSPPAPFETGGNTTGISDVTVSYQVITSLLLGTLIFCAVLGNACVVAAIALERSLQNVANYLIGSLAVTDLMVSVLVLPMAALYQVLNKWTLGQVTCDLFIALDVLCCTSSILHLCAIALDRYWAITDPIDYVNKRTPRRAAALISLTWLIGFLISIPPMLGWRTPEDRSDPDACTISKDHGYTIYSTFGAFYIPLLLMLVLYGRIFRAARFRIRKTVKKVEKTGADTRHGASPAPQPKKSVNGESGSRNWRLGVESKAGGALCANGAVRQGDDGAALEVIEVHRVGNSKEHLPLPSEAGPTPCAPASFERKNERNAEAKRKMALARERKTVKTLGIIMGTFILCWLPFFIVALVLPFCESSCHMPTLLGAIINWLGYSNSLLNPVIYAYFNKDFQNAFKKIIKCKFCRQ
The experiment in a line: In vitro receptor affinity, Serotonin-5-HT1A. It counts as binding. The settings on record: radioligand [3H]-8-OH-DPAT, read-out: K1 (in vitro receptor affinity). Here is the method:
as §2

For series [4], the system named is Apomorphine-induced climbing behaviour in mice. The series is described as follows: Antagonism of apomorphine-induced climbing behaviour in mice. It is filed as in vivo. The settings on record: Mus musculus, po, read-out: Antagon. apomorphine ind. climbing: ED50. The method, then:
(§3) For oral (p.o.) administration: to the desired quantity (0.5-5 mg) of the solid test compound in a glass tube, some glass beads were added and the solid was milled by vortexing for 2 minutes. After addition of 1 ml of a solution of 1% methylcellulose in water and 2% (v/v) of Poloxamer 188 (Lutrol F68), the compound was suspended by vortexing for 10 minutes. The pH was adjusted to 7. Remaining particles in the suspension were further suspended by using an ultrasonic bath.
as §1

The test system of series [5] is Lower lip retraction. The series is described as follows: Lower lip retraction. It counts as in vivo. The settings on record: po, read-out: Lower Lip Retraction: ED50. The method, then: as §3, §1
Series [6] in a line: Plasma concentrations in mice after i.v. or p.o. administration, blood analyzed by LC-MS. It is filed as in vivo. The settings on record: piperazine-N-oxide administered. The method, then:
(§4) The LC-MS system consists of 2 Perkin elmer series 200 micro pumps. The pumps were connected to each other by a 50 pI tee mixer, and connected to a Gilson 215 auto sampler. The method was as follows:
(§5) The auto sampler was connected to a Waters Atlantis C18 30*4.6 mm column with 3 μm particles. The column was thermo stated in a Perkin Elmer series 200 column oven at 40° C. The column was connected to a Perkin Elmer series 200 UV meter with a 2.7 μl flowcel. The wavelength was set to 254 nm. The UV meter was connected to a Sciex API 150EX mass spectrometer. The mass spectrometer had the following parameters: Scanrange:150-900 a.m.u., polarity: positive; scan mode: profile; resolution Q1: UNIT; step size: 0.10 a.m.u.; time per scan: 0.500 sec; NEB: 10; CUR: 10; IS: 5200; TEM: 325; DF: 30; FP: 225 and EP: 10. The light scattering detector was connected to the Sciex API 150. The light scattering detector was a Sedere Sedex 55 operating at 50° C. and 3 bar N2. The complete system was controlled by a G3 powermac.
For oral (p.o.) administration: to the desired quantity (0.5-5 mg) of the solid test compound in a glass tube, some glass beads were added and the solid was milled by vortexing for 2 minutes. After addition of 1 ml of a solution of 1% methylcellulose in water and 2% (v/v) of Poloxamer 188 (Lutrol F68), the compound was suspended by vortexing for 10 minutes. The pH was adjusted to 7. […]

Series [7] in a line: Brain concentrations in mice after i.v. or p.o. administration, LC-MS. It counts as in vivo. The settings on record: for concentration at 0.17 h / concentration at 0.5 h / concentration at 1 h / concentration at 3 h / concentration at 7 h / concentration at 24 h: mouse, brain, read-out: piperazine-N-ox analyzed in brain. The method, then: as §4, §5, §3
For intravenous (i.v.) administration: compounds were dissolved in physiological saline (0.9% NaCl) and the pH was adjusted to 7.
Data were averaged (n=3), and collected in table 4.

A short description of series [8]: Partition coefficient, experimental (Log P). It counts as physicochemical. The settings on record: at pH 7.0.
Series [9] concerns neurotransmitter receptors. The experiment in a line: Pharmacological profile in vitro (overall statement). Here is the method: as §2
In vitro (ant)agonistic activity at human D2 receptors and 5-HT1A receptors was measured according to the methods described by Solomon (1974) and Weiss (1985) respectively, on the formation of adenylate cyclase in CHO cell-lines expressing these cloned receptors.

The mark [10] stands for this setting: iv, 0.5 mg/kg i.v. of administered compound.
[11] abbreviates: po, 5 mg/kg p.o. of administered compound.

Sequence of Dopamine-D2 (P14416 whole entry): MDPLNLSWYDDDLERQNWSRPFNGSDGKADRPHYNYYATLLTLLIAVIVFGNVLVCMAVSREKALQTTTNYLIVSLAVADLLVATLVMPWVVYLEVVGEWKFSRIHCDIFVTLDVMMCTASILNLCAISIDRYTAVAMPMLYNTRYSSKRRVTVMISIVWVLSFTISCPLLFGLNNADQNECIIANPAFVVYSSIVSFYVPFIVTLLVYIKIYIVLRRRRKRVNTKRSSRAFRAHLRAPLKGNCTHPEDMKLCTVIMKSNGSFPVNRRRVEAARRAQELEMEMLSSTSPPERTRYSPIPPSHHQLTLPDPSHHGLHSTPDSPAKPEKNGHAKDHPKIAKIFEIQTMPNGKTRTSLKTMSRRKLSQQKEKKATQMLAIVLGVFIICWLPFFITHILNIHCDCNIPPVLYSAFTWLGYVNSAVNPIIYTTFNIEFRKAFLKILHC

Take `[O-][n+]1cc(C[N+]2([O-])CCN(c3cccc4c3OCCO4)CC2)cc(-c2ccc(F)cc2)c1` [SLV313-bis-N-oxide, 4-(2,3-dihydro-benzo[1,4]dioxin-5-yl-1-[5-4-fluorophenyl]-1-oxy-pyridin-3-ylmethyl)piperazine-1-oxide]: in [1] (stated by analogy), the “potency relative to corresponding parent molecule, the pyridine N-oxide” value is listed as “equipotent”.

Consider `[O-][N+]1(Cc2cncc(-c3ccc(F)cc3)c2)CCN(c2cccc3c2OCCO3)CC1` [piperazine N-oxide], for which the melting point fell in the range of 181 to 182 °C. Also, the Ki in series [2] was more than 1 µM. Besides, in series [3], the Ki is 0.025 µM. Also, the ED50 in series [4] is 0.3 mg/kg. In addition, the ED50 in series [5] turned out to be 10 mg/kg. In series [6], the “time at which plasma concentrations of piperazine-N-oxide and parent molecule cross” value is recorded as “within half an hour”. Besides, the “detection of administered compound in brain” value in [7] (i.v. or p.o.) is given as “hardly detected in brain”. Moreover, in series [7] (setting [10]), the concentration at 0.17 h was 3.1 ng/g, the concentration at 0.5 h is 4.4 ng/g, the concentration at 1 h is 0 ng/g and the concentration at 3 h came out at 0 ng/g. In addition, in series [7] (setting [10]), the concentration at 7 h was determined as 0 ng/g and the concentration at 24 h came out at 0 ng/g. Moreover, in series [7] (setting [11]), the concentration at 0.17 h was determined as 2.9 ng/g, the concentration at 0.5 h turned out to be 2.6 ng/g, the concentration at 1 h worked out at 0 ng/g and the concentration at 3 h was 0 ng/g. Also, in series [7] (setting [11]), the concentration at 7 h turned out to be 0 ng/g and the concentration at 24 h was 0 ng/g. The same compound came in with a lipophilicity (logP) in series [8] of 1.7. Moreover, in series [9], the “pharmacological profile/activity in vitro relative to parent SLV313” value was “virtually inactive; also recorded: nearly inactive”. For the same compound, the “pharmacological profile/potency in vivo relative to SLV313” value in series [1] (in vivo) is listed as “equipotent”.
